Measurements as given in the supplement of paper PMC10307832.

Legend:
Assay in all cases: relative viability (nuclei count vs DMSO), 5 days (fraction); higher = more cells survive
Apatinib + Palbociclib = compound: N#CC1(c2ccc(NC(=O)c3cccnc3NCc3ccncc3)cc2)CCCC1 [Apatinib] + CC(=O)c1c(C)c2cnc(Nc3ccc(N4CCNCC4)cn3)nc2n(C2CCCC2)c1=O [Palbociclib] (partner 0.5 µM)
Summary of the method: (§1)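 Cells from lung cancer lines were seeded into 1536-well plates and, one day later, dosed by pin tool. Treatments were either a single drug or a fixed dose of an anchor drug with five library-drug doses (not always all listed) in √10 steps. After 5 days, nuclei were stained in a one-step fixation (final 0.05% Triton X-100, 1% formaldehyde, 1 ug/ml Hoechst) and counted on 4× images, and relative viability is the treated-to-vehicle nuclei ratio, as the median of duplicate plates.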

Metformin + AZD7762 = compound: CN(C)C(=N)NC(=N)N [Metformin] + NC(=O)Nc1cc(-c2cccc(F)c2)sc1C(=O)N[C@H]1CCCNC1 [AZD7762] (partner 0.2 µM)
Summary of the method: as §1

Metformin + Palbociclib = compound: CN(C)C(=N)NC(=N)N [Metformin] + CC(=O)c1c(C)c2cnc(Nc3ccc(N4CCNCC4)cn3)nc2n(C2CCCC2)c1=O [Palbociclib] (partner 0.5 µM)
Summary of the method: as §1

Metformin + Luminespib = compound: CN(C)C(=N)NC(=N)N [Metformin] + CCNC(=O)c1noc(-c2cc(C(C)C)c(O)cc2O)c1-c1ccc(CN2CCOCC2)cc1 [Luminespib] (partner 0.01 µM)
Summary of the method: as §1

Cell Line | relative viability (Apatinib + Palbociclib; first compound 0.08 µM) | relative viability (Apatinib + Palbociclib; first compound 0.253 µM) | relative viability (Apatinib + Palbociclib; first compound 0.8 µM) | relative viability (Apatinib + Palbociclib; first compound 2.53 µM) | relative viability (Apatinib + Palbociclib; first compound 8 µM) | relative viability (Metformin + AZD7762; first compound 10 µM) | relative viability (Metformin + AZD7762; first compound 31.62 µM) | relative viability (Metformin + AZD7762; first compound 100 µM) | relative viability (Metformin + AZD7762; first compound 316.23 µM) | relative viability (Metformin + AZD7762; first compound 1000 µM) | relative viability (Metformin + Palbociclib; first compound 10 µM) | relative viability (Metformin + Palbociclib; first compound 31.62 µM) | relative viability (Metformin + Palbociclib; first compound 100 µM) | relative viability (Metformin + Palbociclib; first compound 316.23 µM) | relative viability (Metformin + Palbociclib; first compound 1000 µM) | relative viability (Metformin + Luminespib; first compound 10 µM) | relative viability (Metformin + Luminespib; first compound 31.62 µM) | relative viability (Metformin + Luminespib; first compound 100 µM) | relative viability (Metformin + Luminespib; first compound 316.23 µM) | relative viability (Metformin + Luminespib; first compound 1000 µM)
NCI-H1355 | 0.379 | 0.394 | 0.367 | 0.378 | 0.366 | 0.735 | 0.656 | 0.694 | 0.732 | 0.72 | 0.341 | 0.36 | 0.382 | 0.358 | 0.383 | 0.752 | 0.704 | 0.768 | 0.701 | 0.752
NCI-H1650 | 0.262 | 0.352 | 0.323 | 0.299 | 0.303 |  |  |  |  |  | 0.316 | 0.381 | 0.424 | 0.229 | 0.305 | 0.189 | 0.212 | 0.203 | 0.218 | 0.218
HCC-78 | 0.48 | 0.453 | 0.476 | 0.494 | 0.442 |  | 0.99 | 0.946 | 0.846 | 0.917 | 0.479 | 0.507 | 0.452 | 0.505 | 0.483 |  |  |  |  | 
NCI-H1666 | 0.675 | 0.638 | 0.655 | 0.629 | 0.626 | 0.897 | 0.993 | 0.98 | 0.869 | 1.1 | 0.695 | 0.616 | 0.642 | 0.681 | 0.714 | 1.06 | 1.11 | 1.16 | 1.06 | 1.16
HCC-15 | 0.792 | 0.734 | 0.677 | 0.705 | 0.586 |  | 1.07 | 1.11 | 1 | 1.27 | 0.726 | 0.807 | 0.716 | 0.562 | 0.831 |  | 0.235 | 0.348 | 0.35 | 0.321
EKVX | 0.378 | 0.482 | 0.33 | 0.375 | 0.378 |  | 0.69 | 0.795 | 0.609 | 0.674 |  | 0.312 | 0.355 | 0.384 | 0.357 | 0.872 | 0.948 | 0.809 |  | 0.836
NCI-H3122 | 0.186 | 0.231 | 0.191 | 0.23 | 0.228 | 0.867 | 0.881 | 0.984 | 0.845 | 0.809 | 0.174 | 0.188 | 0.228 | 0.191 | 0.184 | 0.076 | 0.0878 | 0.0846 | 0.0862 | 0.113
NCI-H1651 | 0.516 | 0.522 | 0.489 | 0.514 | 0.459 | 0.467 | 0.519 | 0.495 | 0.473 | 0.587 | 0.556 | 0.681 | 0.652 | 0.519 | 0.605 | 1.19 | 1.3 | 1.06 | 0.828 | 0.989
COR-L23 | 0.321 | 0.341 | 0.278 | 0.273 | 0.271 |  |  |  |  |  | 0.237 | 0.289 | 0.218 | 0.208 | 0.249 | 0.635 | 0.655 | 0.593 | 0.495 | 0.302
